# Patent US11357779B2 (G1 Therapeutics, Inc., priority 2018, dated 2022)
# Where two headings read alike, the source gives them in different places.
# Tests used:
# [1] = Pharmacokinetics of Compound I in healthy volunteers after a single dose of Form B of Compound II; format: in vivo, human; details: for AUC(0-inf) / Cmax / Tmax / half-life / Vd/F: human, oral; for Vd/F: read-out: Vz/F
# Experimental: Table 84 provides the pharmacokinetic parameters of Compound I upon administration of a single dose of Form B of Compound II (48, 100, 200, 300, 400, or 600 mg) in healthy volunteers. Blood samples for analysis of Compound I were collected pre-dose and 0.25, 0.5, 1, 1.5, 2, 3, 4, 6, 8, 12, 24, 36, 48, 72, and 96 hours post-dose.
# [2] = Steady-state AUC0-24,ss, (AUC0-24,ss)/dose, half-life and time to steady state: Compound I versus palbociclib, ribociclib, abemaciclib; format: in vivo, human; details: for (Mean AUC0-24,ss)/Dose (mg) / Cmax / AUC(0-t): Day 29; for AUC(0-t): read-out: Mean AUC0-24,ss
# Excerpt: The time to reach steady state was defined as five half-lives (97% steady state achieved). […] The AUC data are presented as the arithmetic mean. […] The AUC data are presented as the geometric mean. The steady-state AUC0-24 for various BID doses of abemaciclib provided in Table 89 was obtained from the above cited prior published studies. The AUC data are presented as the geometric mean.
# BT474 tumor = assay: Murine HER2+ ER+ CBX model, tumor growth and survival; format: in vivo; details: BT474 tumor-containing mice; Compound I 50 mg/kg by mouth once a day for 56 days
# Experimental: Mice containing a BT474 tumor were treated with vehicle, Compound I (50 mg/kg by mouth once a day for 56 days), lapatinib+trastuzumab, or Compound I+lapatinib+trastuzumab.
# [3] = blood, single 100 mg dose of Form B of Compound II
# [4] = blood, single 200 mg dose of Form B of Compound II
# [5] = blood, single 300 mg dose of Form B of Compound II
# [6] = plasma, single 48 mg dose of Form B of Compound II
# [7] = plasma, single 400 mg dose of Form B of Compound II
# [8] = plasma, single 600 mg dose of Form B of Compound II
# [9] = 200 mg QD of Form B of Compound II, five half-lives
# [10] = human, plasma, oral, 200 mg QD of Form B of Compound II
# [11] = human, plasma, oral, 300 mg QD of Form B of Compound II
# [12] = human, plasma, oral, 400 mg QD of Form B of Compound II
# [13] = human, plasma, oral, 500 mg QD of Form B of Compound II
# [14] = human, plasma, oral, 650 mg QD of Form B of Compound II
structure (smiles),measurement,setting,value
"CC(C)N1CCN(c2ccc(Nc3ncc4cc5n(c4n3)C3(CCCCC3)CNC5=O)nc2)CC1 [Compound I, 2′-((5-(4-isopropylpiperazin-1-yl)pyridin-2-yl)amino)-7′,8′-dihydro-6′H-spiro[cyclohexane-1,9′-pyrazino[1′,2′:1,5]pyrrolo[2,3-d]pyrimidin]-6′-one]",AUC(0-inf),[1]; [3],60.2 ng·h/mL
same,Cmax,[1]; [3],9.23 ng/mL
same,Tmax,[1]; [3],2 h
same,half-life,[1]; [3],4.71 h
same,Vd/F,[1]; [3],11300 L
same,AUC(0-inf),[1]; [4],275 ng·h/mL
same,Cmax,[1]; [4],29.3 ng/mL
same,Tmax,[1]; [4],3 h
same,half-life,[1]; [4],13.8 h
same,Vd/F,[1]; [4],14500 L
same,AUC(0-inf),[1]; [5],349 ng·h/mL
same,Cmax,[1]; [5],27 ng/mL
same,Tmax,[1]; [5],3.5 h
same,half-life,[1]; [5],15.4 h
same,Vd/F,[1]; [5],19100 L
same,Tmax,"[1]; blood, single 400 mg dose of Form B of Compound II",5 h
same,AUC(0-inf),[1]; [6],20.4 ng·h/mL
same,Cmax,[1]; [6],3.65 ng/mL
same,Tmax,[1]; [6],2 h
same,half-life,[1]; [6],3.07 h
same,Vd/F,[1]; [6],10400 L
same,AUC(0-inf),[1]; [7],432 ng·h/mL
same,Cmax,[1]; [7],26.3 ng/mL
same,half-life,[1]; [7],14.9 h
same,Vd/F,[1]; [7],19900 L
same,AUC(0-inf),[1]; [8],886 ng·h/mL
same,Cmax,[1]; [8],59 ng/mL
same,Tmax,[1]; [8],6 h
same,half-life,[1]; [8],17.2 h
same,Vd/F,[1]; [8],16800 L
same,CL/F,[1]; single 48 mg dose of Form B of Compound II,2354 L/h
same,CL/F,[1]; single 100 mg dose of Form B of Compound II,1660 L/h
same,CL/F,[1]; single 200 mg dose of Form B of Compound II,727 L/h
same,CL/F,[1]; single 300 mg dose of Form B of Compound II,861 L/h
same,CL/F,[1]; single 400 mg dose of Form B of Compound II,926 L/h
same,CL/F,[1]; single 600 mg dose of Form B of Compound II,677 L/h
same,"(Mean AUC0-24,ss)/Dose (mg)",[2]; 200 mg QD of Form B of Compound II,1.15 ng·h/mL/mg
same,Time to Steady State,[2]; [9],3.2 days
same,Time to Steady-State,[2]; [9],76 h
same,"(Mean AUC0-24,ss)/Dose (mg)",[2]; 300 mg QD of Form B of Compound II,1.97 ng·h/mL/mg
same,"(Mean AUC0-24,ss)/Dose (mg)",[2]; 400 mg QD of Form B of Compound II,0.695 ng·h/mL/mg
same,"(Mean AUC0-24,ss)/Dose (mg)",[2]; 500 mg QD of Form B of Compound II,1.21 ng·h/mL/mg
same,"(Mean AUC0-24,ss)/Dose (mg)",[2]; 650 mg QD of Form B of Compound II,1.47 ng·h/mL/mg
same,"(AUC0-24,ss)/Dose","[2]; Compound I, Day 29, QD dosing of Form B of Compound II",≤ 5
same,half-life,[2]; [10],15.2 h
same,Cmax,[2]; [10],20.4 ng/mL
same,AUC(0-t),[2]; [10],229 ng·h/mL
same,Cmax,[2]; [11],47 ng/mL
same,AUC(0-t),[2]; [11],592 ng·h/mL
same,Cmax,[2]; [12],19 ng/mL
same,AUC(0-t),[2]; [12],278 ng·h/mL
same,Cmax,[2]; [13],43.2 ng/mL
same,AUC(0-t),[2]; [13],607 ng·h/mL
same,Cmax,[2]; [14],66 ng/mL
same,AUC(0-t),[2]; [14],956 ng·h/mL
same,Median OS,BT474 tumor,25 days
